Measurements as given in article PMC12518639, “Apomorphine is a novel necroptosis inhibitor targeting mixed lineage kinase domain-like protein oligomerization” (Cell Death Discovery, 2025).

What was measured:
THP-1 cells = assay: Released HMGB1 in supernatant of TBZ-treated cells; assay type: cell-based, human; details: TBZ-treated THP-1, different concentrations, 8 h
Method: TBZ-treated cell supernatants were harvested and centrifuged using Amicon ultra centrifugal filters 10 kDa (UFC501096, Millipore, Billerica, MA, USA) at 4000×g for 1 h. The concentrated supernatants were analyzed using SDS-PAGE to assess released HMGB1 levels.

Nt-hMLKL^F148A = molecular target: T1, Nt-hMLKL^F148A (Homo sapiens, UniProt Q8NB16, F148A); assay: SPR binding to Nt-hMLKL F148A mutant; details: versus Nt-hMLKL
T1 construct: an N-terminal domain (Nt-hMLKL, amino acids 2–154, MW: 23 kDa) involved in oligomerization; His (N); made in house; host or cells: E. coli BL21
T1 sequence (Q8NB16 2-154 F148A): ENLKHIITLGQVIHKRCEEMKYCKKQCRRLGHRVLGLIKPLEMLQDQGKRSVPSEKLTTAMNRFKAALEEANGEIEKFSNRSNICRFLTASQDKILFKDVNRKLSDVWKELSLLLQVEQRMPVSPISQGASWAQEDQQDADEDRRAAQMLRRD
Description: (§1) The hMLKL plasmid (RC213152, OriGene, Rockville, MD, USA), and recombinant Wt-hMLKL (ab241453, Abcam) and Wt-mMLKL (MBS1379843, MyBioSource, San Diego, CA, USA) proteins were purchased. Nt-hMLKL (2–154), Nt-mMLKL (1–180), and Ct-hMLKL (183–471) were generated using the pBT7-N-His vector. Nt-hMLKL^C86A, Nt-hMLKL^F148A, -hMLKL^C86A/L89A/D94A, and Nt-hMLKL^R145A/R146A/F148A/M150A were generated using the Site-directed Mutagenesis Kit (EZ004S, Enzynomics, S. Korea). These constructs were subcloned into pBT7-N-His and pET-15b plasmid vectors. E. coli BL21 cells transformed with the cloned expression vectors were cultured in LB medium and supplemented with 100 μg/mL ampicillin until an OD at 600 nm of 0.5–0.6 was reached. The cultures were induced by 1 mM IPTG (367-93-1, Sigma-Aldrich). The cells were lysed and centrifuged. The clear supernatants were subjected to Ni-NTA affinity chromatography (175018169, QIAGEN, Hilden, Germany). Plasmids encoding mMLKL (1–464)–gyrase fusion constructs were kindly provided by Prof. […]
(§2) The interactions of Wt-hMLKL, Wt-mMLKL, Nt-mMLKL, Nt, and Ct-hMLKL proteins with Re-APO or Ox-APO were detected through SPR analysis using Biacore™ T200 (Cytiva, Marlborough, MA, USA). […] Sensorgrams were recorded and analyzed in real-time using the control software in the BIAcore T200 system. All data were analyzed using the BIA evaluation software (Cytiva).

[1] = system: J774A.1 cells transfected with Wt-mMLKL (1–464)-gyrase; assay: PI uptake after chemically induced mMLKL-gyrase dimerization; assay type: cell-based, mouse; details: 20 μM overnight
Method: PI uptake assays were performed in triplicate to evaluate pore formation on the plasma membrane. THP‑1 cells (2 × 10⁵ cells/well) were seeded in black-walled, clear-bottom 96-well plates and treated with TBZ (TNF, BV6, and z-VAD-FMK) in the presence or absence of candidate compounds for 8 h to induce necroptosis. […] PI (556463, BD Biosciences, San Jose, CA, USA) was added at a final concentration of 1 μg/mL for 10 min before measurement. Fluorescence was recorded using a Varioskan Flash 3001 plate reader (Thermo Fisher Scientific, Waltham, MA, USA).
J774A.1 cells were transfected with plasmids encoding mMLKL (1–464)-gyrase. mMLKL-gyrase expression was induced with 10 ng/mL doxycycline (Dox), followed by 700 nM coumermycin treatment for 4 h to promote dimerization. Then, Ox-APO (20 μM) was added, and the cells were incubated overnight. PI uptake was measured using a microplate reader, and the values were normalized to those of the untreated group. Data represent mean ± SEM (n = 3). **p < 0.01, ***p < 0.001, one-way ANOVA. The expression of mMLKL-gyrase was confirmed by SDS-PAGE of WCLs, followed by immunoblotting with the indicated antibodies. The arrowhead indicates endogenous MLKL, while the tailed arrow denotes the mMLKL–gyrase fusion protein.

[2] = molecular target: T2, Nt-hMLKL^R145A/R146A/F148A/M150A (Homo sapiens, UniProt Q8NB16, F148A/M150A/R145A/R146A); assay: SPR binding to Nt-hMLKL quadruple mutant; details: CM5 chip
T2 construct: an N-terminal domain (Nt-hMLKL, amino acids 2–154, MW: 23 kDa) involved in oligomerization; His (N); made in house; host or cells: E. coli BL21
T2 sequence (Q8NB16 2-154 R145A/R146A/F148A/M150A): as the sequence (Q8NB16 2-154 F148A) above, with R144A, R145A, M149A counted along it
Description: as §1, §2

[3] = system: APAP-induced liver injury in MLKL−/− C57BL/6 mice; assay: APAP-induced liver injury in MLKL knockout mice; assay type: in vivo, mouse; details: 15 mg/kg, 400 mg/kg APAP, 24 h
Method: For APAP-induced liver injury, male BALB/c mice aged 6–8 weeks (Central Lab Animal Inc., S. Korea) and male MLKL^–/– C57BL/6 mice aged 6–8 weeks (Cyagen, Santa Clara, CA, USA) were administered acetaminophen (APAP; 400–500 mg/kg, 103-90-2, Sigma-Aldrich) by i.p. injection to induce liver injury in the presence or absence of APO after 12 h of fasting. After 24 h, the mice were sacrificed to obtain liver tissues for further analysis.
For liver tissue preparation, each liver was perfused with DPBS and then fixed in 4% paraformaldehyde (PFA; PC2031-050-00, Biosesang, S. Korea) before embedding in paraffin. Sections were stained with H&E, and necrotic areas were quantified using ImageJ by calculating the proportion of pale or unstained regions relative to the total tissue area. Mouse liver sections were subjected to IHC staining to assess distinct forms of cell death: an anti-p-MLKL antibody (MA5-32752, Thermo Fisher Scientific) to evaluate p-MLKL localization (necroptosis), a TUNEL assay kit (4810-30-K, R&D Systems) for apoptosis, and an anti-4-HNE antibody (GTX01087, GeneTex) for ferroptosis.
Fig. S6 APO reduces liver damage in MLKL^–/– mice. […] Necrotic areas were quantified as the proportion of unstained regions relative to the total tissue area. […] (D) Serum AST and ALT levels were evaluated to assess liver injury after APAP injection. […]

Structure (SMILES) | HMGB1 release (THP-1 cells) | fold weaker binding of single mutant (Nt-hMLKL^F148A) | PI-positive cells after Dox and coumermycin stimulation [1] | binding in SPR [2] | hepatic damage (H&E, ALT, AST, TUNEL, 4-HNE) [3]
CN1CCc2cccc3c2[C@@H]1Cc1ccc(O)c(O)c1-3 [S62, (6aS)-6-methyl-5,6,6a,7-tetrahydro-4H-dibenzo[de,g]quinoline-10,11-diol] | dose-dependently decreased |  |  |  | 
CN1CCc2cccc3c4c(cc1c23)C=CC(=O)C4=O [Ox-APO] |  | ~ 10 fold | markedly reduced | retained binding | significantly reduced
